In patent publication US9062048B2, “Cyclohexyl-azetidinyl antagonists of CCR2” (Janssen Pharmaceutica NV, priority 2010, dated 2015):
pIC50: −log10 of the molar value.

Biological target: CCR2 (Homo sapiens (Human), UniProt P41597)
Experiment: MCP-1 Receptor Binding Assay in THP-1 Cells;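 further: THP-1 is a human monocytic cell line, and nonspecific binding was defined with 1 µM unlabeled MCP-1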
Details: 0.5 nM 125I labeled MCP-1, 2 hours at 30° C., read-out: Inhibition of MCP-1 Binding IC50 MCP1B

Chain of CCR2 (P41597 whole entry): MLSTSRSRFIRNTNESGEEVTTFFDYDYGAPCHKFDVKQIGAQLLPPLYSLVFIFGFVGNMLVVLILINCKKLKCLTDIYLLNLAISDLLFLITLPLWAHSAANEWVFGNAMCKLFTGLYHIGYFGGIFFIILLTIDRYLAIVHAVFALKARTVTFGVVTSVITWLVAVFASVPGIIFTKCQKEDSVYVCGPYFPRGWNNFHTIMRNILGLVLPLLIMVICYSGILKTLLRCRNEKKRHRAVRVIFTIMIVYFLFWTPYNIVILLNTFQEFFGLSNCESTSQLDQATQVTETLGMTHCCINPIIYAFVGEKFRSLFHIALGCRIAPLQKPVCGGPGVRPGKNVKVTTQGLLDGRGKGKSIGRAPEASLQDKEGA

SMILES | pIC50
O=C(CNc1ccnc2ccc(C(F)(F)F)cc12)NC1CN([C@H]2CC[C@@H](n3ccccc3=O)CC2)C1 [Example 58, N-(1-((1s,4s)-4-(2-oxopyridin-1(2H)-yl)cyclohexyl)azetidin-3-yl)-2-((6-(trifluoromethyl)quinolin-4-yl)amino)acetamide] | 7.04
O=C(CNc1cc(C(F)(F)F)nc2ccc(C(F)(F)F)cc12)NC1CN([C@H]2CC[C@@H](n3ccccc3=O)CC2)C1 [Example 59, 2-((2,6-bis(trifluoromethyl)quinolin-4-yl)amino)-N-(1-((1s,4s)-4-(2-oxopyridin-1(2H)-yl)cyclohexyl)azetidin-3-yl)acetamide] | 6.89
N#Cc1cc(NCC(=O)NC2CN([C@H]3CC[C@@H](n4ccccc4=O)CC3)C2)c2cc(C(F)(F)F)ccc2n1 [Example 60, 2-((2-cyano-6-(trifluoromethyl)quinolin-4-yl)amino)-N-(1-((1s,4s)-4-(2-oxopyridin-1(2H)-yl)cyclohexyl)azetidin-3-yl)acetamide] | 7.40
CN(CC(=O)NC1CN([C@H]2CC[C@@](O)(c3nccs3)CC2)C1)c1ncnc2ccc(C(F)(F)F)cc12 [Example 64, N-(1-((1r,4r)-4-hydroxy-4-(thiazol-2-yl)cyclohexyl)azetidin-3-yl)-2-(methyl(6-(trifluoromethyl)quinazolin-4-yl)amino)acetamide] | 6.08
O=C(CNc1ncnc2ccc(C(F)(F)F)cc12)NC1CN([C@H]2CC[C@@H](c3ccccc3CO)CC2)C1 [Example 73, N-(1-((1s,4s)-4-(2-(hydroxymethyl)phenyl)cyclohexyl)azetidin-3-yl)-2-((6-(trifluoromethyl)quinazolin-4-yl)amino)acetamide] | 7.26
CNc1cnccc1C1CCC(N2CC(NC(=O)CNc3ncnc4ccc(C(F)(F)F)cc34)C2)CC1 (stereo not drawn) [Example 74, N-(1-(4-(3-(methylamino)pyridin-4-yl)cyclohexyl)azetidin-3-yl)-2-((6-(trifluoromethyl)quinazolin-4-yl)amino)acetamide] | 6.89
CCC(O)[C@H]1CC[C@@H](N2CC(NC(=O)CNc3ncnc4ccc(C(F)(F)F)cc34)C2)CC1 (stereo partly drawn) [Example 93, N-(1-((1S,4s)-4-(1-hydroxypropyl)cyclohexyl)azetidin-3-yl)-2-((6-(trifluoromethyl)quinazolin-4-yl)amino)acetamide] | 7.68
O=C(CNc1ncnc2ccc(C(F)(F)F)cc12)NC1CN([C@H]2CC[C@@H](C(O)C3CCCC3)CC2)C1 (stereo partly drawn) [Example 94, N-(1-((1S,4s)-4-(cyclopentyl(hydroxy)methyl)cyclohexyl)azetidin-3-yl)-2-((6-(trifluoromethyl)quinazolin-4-yl)amino)acetamide] | 7.62
C#CC(O)[C@H]1CC[C@@H](N2CC(NC(=O)CNc3ncnc4ccc(C(F)(F)F)cc34)C2)CC1 (stereo partly drawn) [Example 95, N-(1-((1R,4s)-4-(1-hydroxyprop-2-yn-1-yl)cyclohexyl)azetidin-3-yl)-2-((6-(trifluoromethyl)quinazolin-4-yl)amino)acetamide] | 7.55
C=C(C)C(O)[C@H]1CC[C@@H](N2CC(NC(=O)CNc3ncnc4ccc(C(F)(F)F)cc34)C2)CC1 (stereo partly drawn) [Example 96, N-(1-((1R,4s)-4-(1-hydroxy-2-methylallyl)cyclohexyl)azetidin-3-yl)-2-((6-(trifluoromethyl)quinazolin-4-yl)amino)acetamide] | 7.12
CC(O)[C@H]1CC[C@@H](N2CC(NC(=O)CNc3ncnc4ccc(C(F)(F)F)cc34)C2)CC1 (stereo partly drawn) [Example 97, N-(1-((1S,4s)-4-(1-hydroxyethyl)cyclohexyl)azetidin-3-yl)-2-((6-(trifluoromethyl)quinazolin-4-yl)amino)acetamide] | 7.05
CC(C)(C)C(O)[C@H]1CC[C@@H](N2CC(NC(=O)CNc3ncnc4ccc(C(F)(F)F)cc34)C2)CC1 (stereo partly drawn) [Example 98, N-(1-((1R,4s)-4-(1-hydroxy-2,2-dimethylpropyl)cyclohexyl)azetidin-3-yl)-2-((6-(trifluoromethyl)quinazolin-4-yl)amino)acetamide] | 6.12
CCC(OC(C)=O)[C@H]1CC[C@@H](N2CC(NC(=O)CNc3ncnc4ccc(C(F)(F)F)cc34)C2)CC1 (stereo partly drawn) [Example 100, 1-((1s,4S)-4-(3-(2-((6-(trifluoromethyl)quinazolin-4-yl)amino)acetamido)azetidin-1-yl)cyclohexyl)propyl acetate] | 7.55
O=C(CNc1ncnc2ccc(C(F)(F)F)cc12)NC1CN(C2CCCCC2)C1 [Example 101, N-(1-cyclohexylazetidin-3-yl)-2-((6-(trifluoromethyl)quinazolin-4-yl)amino)acetamide] | 7.20
O=C(CNc1ncnc2ccc(C(F)(F)F)cc12)NC1CN([C@H]2CC[C@@H](C3CCCCC3)CC2)C1 [Example 102, N-(1-((1s,4s)-1^˜1,1′-bi(cyclohexan)1-4-yl)azetidin-3-yl)-2-((6-(trifluoromethyl)quinazolin-4-yl)amino)acetamide] | 6.06
O=C1CCC(N2CC(NC(=O)CNc3ncnc4ccc(C(F)(F)F)cc34)C2)CC1 [Example 103, N-(1-(4-oxocyclohexyl)azetidin-3-yl)-2-((6-(trifluoromethyl)quinazolin-4-yl)amino)acetamide] | 6.28
CCC(NC(=O)OC)[C@H]1CC[C@@H](N2CC(NC(=O)CNc3ncnc4ccc(C(F)(F)F)cc34)C2)CC1 (stereo partly drawn) [Example 104, methyl (−1-((1s,4S)-4-(3-(2-((6-(trifluoromethyl)quinazolin-4-yl)amino)acetamido)azetidin-1-yl)cyclohexyl)propyl)carbamate] | 6.19
O=C(CNc1ncnc2ccc(C(F)(F)F)cc12)NC1CN([C@H]2CC[C@@H](CCO)CC2)C1 [Example 108, N-(1-((1s,4s)-4-(2-hydroxyethyl)cyclohexyl)azetidin-3-yl)-2-((6-(trifluoromethyl)quinazolin-4-yl)amino)acetamide] | 7.72
O=C(CNc1ncnc2ccc(C(F)(F)F)cc12)NC1CN([C@H]2CC[C@@H](CO)CC2)C1 [Example 109, N-(1-((1s,4s)-4-(hydroxymethyl)cyclohexyl)azetidin-3-yl)-2-((6-(trifluoromethyl)quinazolin-4-yl)amino)acetamide] | 7.24
O=C(CNc1ncnc2ccc(C(F)(F)F)cc12)NC1CN([C@H]2CC[C@@H](O)CC2)C1 [Example 110, N-(1-((1s,4s)-4-hydroxycyclohexyl)azetidin-3-yl)-2-((6-(trifluoromethyl)quinazolin-4-yl)amino)acetamide] | 7.17
CC(=O)NC[C@H]1CC[C@@H](N2CC(NC(=O)CNc3ncnc4ccc(C(F)(F)F)cc34)C2)CC1 [Example 111, N-(1-((1s,4s)-4-(acetamidomethyl)cyclohexyl)azetidin-3-yl)-2-((6-(trifluoromethyl)quinazolin-4-yl)amino)acetamide] | 7.43
O=C(CNc1ncnc2ccc(C(F)(F)F)cc12)NC1CN([C@H]2CC[C@@H](CNC(=O)C(F)(F)F)CC2)C1 [Example 112] | 7.09
CC(C)(C)OC(=O)NC[C@H]1CC[C@@H](N2CC(NC(=O)CNc3ncnc4ccc(C(F)(F)F)cc34)C2)CC1 [Example 113, tert-butyl (((1s,4s)-4-(3-(2-((6-(trifluoromethyl)quinazolin-4-yl)amino)acetamido)azetidin-1-yl)cyclohexyl)methyl)carbamate] | 6.92

The remaining compounds from weak to strong by pIC50, led by results:

pIC50 | SMILES
7.72 | O=C(CNc1ncnc2ccc(C(F)(F)F)cc12)NC1CN([C@H]2CC[C@@H](C(O)c3cncs3)CC2)C1 (stereo partly drawn) [Example 99, N-(1-((1R,4s)-4-(hydroxy(thiazol-5-yl)methyl)cyclohexyl)azetidin-3-yl)-2-((6-(trifluoromethyl)quinazolin-4-yl)amino)acetamide]
7.80 | C=CCC(O)[C@H]1CC[C@@H](N2CC(NC(=O)CNc3ncnc4ccc(C(F)(F)F)cc34)C2)CC1 (stereo partly drawn) [Example 91, N-(1-((1S,4s)-4-(1-hydroxybut-3-en-1-yl)cyclohexyl)azetidin-3-yl)-2-((6-(trifluoromethyl)quinazolin-4-yl)amino)acetamide]
7.80 | C=CC(O)[C@H]1CC[C@@H](N2CC(NC(=O)CNc3ncnc4ccc(C(F)(F)F)cc34)C2)CC1 (stereo partly drawn) [Example 92, N-(1-((1S,4s)-4-(1-hydroxyallyl)cyclohexyl)azetidin-3-yl)-2-((6-(trifluoromethyl)quinazolin-4-yl)amino)acetamide]
7.85 | CCOCC1CCC(N2CC(NC(=O)CNc3ncnc4ccc(C(F)(F)F)cc34)C2)CC1 (stereo not drawn) [Example 105, N-(1-(4-(ethoxymethyl)cyclohexyl)azetidin-3-yl)-2-((6-(trifluoromethyl)quinazolin-4-yl)amino)acetamide]
7.89 | CCCC(O)[C@H]1CC[C@@H](N2CC(NC(=O)CNc3ncnc4ccc(C(F)(F)F)cc34)C2)CC1 (stereo partly drawn) [Example 90, N-(1-((1S,4s)-4-(1-hydroxybutyl)cyclohexyl)azetidin-3-yl)-2-((6-(trifluoromethyl)quinazolin-4-yl)amino)acetamide]
7.89 | CCOC(=O)[C@H]1CC[C@@H](N2CC(NC(=O)CNc3ncnc4ccc(C(F)(F)F)cc34)C2)CC1 [Example 106, (1s,4s)-ethyl 4-(3-(2-((6-(trifluoromethyl)quinazolin-4-yl)amino)acetamido)azetidin-1-yl)cyclohexanecarboxylate]
7.96 | Cc1ccc([C@]2(O)CC[C@H](N3CC(NC(=O)CNc4ncnc5ccc(C(F)(F)F)cc45)C3)CC2)cn1 [Example 75, N-(1-((1r,4r)-4-hydroxy-4-(6-methylpyridin-3-yl)cyclohexyl)azetidin-3-yl)-2-((6-(trifluoromethyl)quinazolin-4-yl)amino)acetamide]
8.05 | NC(=O)c1cc(NCC(=O)NC2CN([C@H]3CC[C@@](O)(c4cncs4)CC3)C2)c2cc(C(F)(F)F)ccc2n1 [Example 62]
8.05 | Nc1ccc(C2CCC(N3CC(NC(=O)CNc4ncnc5ccc(C(F)(F)F)cc45)C3)CC2)nc1 (stereo not drawn) [Example 70, N-(1-(4-(5-aminopyridin-2-yl)cyclohexyl)azetidin-3-yl)-2-((6-(trifluoromethyl)quinazolin-4-yl)amino)acetamide]
8.15 | CC(C)c1nc(NCC(=O)NC2CN([C@H]3CC[C@@](O)(c4cncs4)CC3)C2)c2cc(C(F)(F)F)ccc2n1 [Example 88]
